Data set [1] relates to T. gondii-ΔHXGPRT. The experiment in a line: Fluorescent T. gondii growth assay, ΔHXGPRT strain. The data set is classed as cell-based. The note with it: Toxoplasma gondii, read-out: T. gondii model EC50 ΔHXGPRT, T. gondii-ΔHXGPRT. The text has this:
(§1) Wild-type T. gondii and T. gondii-ΔHXGPRT parasites were transfected with plasmid ptubYFPYFsagCAT [37] which drives constitutive cytoplasmic expression of two copies of the yellow fluorescent protein. Similarly, plasmid pCTR2T [38] was transfected into T. gondii-CpIMPDH resulting in constitutive cytoplasmic expression of a tandem of the tomato variant of the red fluorescent protein [39]. Fluorescent parasites were selected and cloned by cell sorting using a MoFlo Legacy instrument (Beckman Coulter, Inc). Growth of fluorescent clones was monitored in 96 well plates as previously described. Briefly, fluorescence was read daily with a SpectraMax M22/M2e (Molecular Devices) plate reader (Ex 485, Em 530) for 6–7 days. For each of the three fluorescent T. gondii clones percent growth inhibition was calculated on a day within the exponential phase of growth for the purpose of determining an IC50 for each compound.
(§2) Supplementary file pntd.0000794.s002.tif: Figure S2 Obtaining an EC50 value for T. gondii growth. Fluorescent T. gondii parasites are seeded into 96-well plates and spiked with test compound. Fluorescence is measured daily with a SpectraMax M22/M2e (Molecular Devices) plate reader for 6–7 days. The fluorescence readings on a day during the exponential phase of the growth curve, for example day 4 in A, are used to calculated percent growth inhibition. These values are fitted using the 4 parameter model y = D+(A–D)/(1+(x/C)^B) where D is the minimum value, A is the maximum value, C is the EC50 and B is the Hill coefficient, using the SoftMax Pro v5 software, as illustrated in B. The absolute EC50 is recorded at the x intercept where y = 50. (0.33 MB TIF) Click here for additional data file.

Data set [2] concerns HCT-8 cells. In words: Fluorescent HCT-8 host cell growth assay. Format: cell-based, human. The note with it: for activity at 25 µM: Homo sapiens, HCT-8, compound at 25 μM, relative to DMSO alone; for inhibition of HCT-8 cell growth: at 12.5 µM and 25 µM. How it is done: HCT-8 cells were transfected with plasmid pmaxGFP (Amaxa) using Lipofectamine (Invitrogen). Fluorescent lines were then selected and cloned using cell sorting. Confluent monolayers of pmaxGFP expressing cells were harvested from T75 flasks and passed through a 40 µm cell strainer. Cells were seeded at 4000 cells per well into black, optical quality, thin bottom, 96-well plates. All test compounds were diluted in DMSO as described. The fluorescence was read daily with a SpectraMax M22/M2e (Molecular Devices) plate reader (Ex 485, Em 530) for 6–7 days. Percent inhibition was calculated on a day within the exponential phase of growth.

The target of data set [3] is T1, CpIMPDH (Cryptosporidium parvum, UniProt Q8T6T2). In words: CpIMPDH enzyme inhibition (without or with BSA). The data set is classed as biochemical. Particulars: compound not previously described. How it is done: We wondered if some compounds might be binding nonspecifically to other proteins. To test this hypothesis, CpIMPDH inhibition was also evaluated in the presence of BSA [22]. […] Selectivity in the T. gondii model also correlates well with the potency of enzyme inhibition in the presence of BSA (Figure 7C; r = −0.92, p<0.0001). These observations indicate that the IC50 value in the presence of BSA is a useful proxy for antiparasitic activity modelled by T. gondii-CpIMPDH proliferation.

Data set [4] deals with C. parvum. The experiment in a line: High-content imaging C. parvum growth assay (FITC-VVL). Format: cell-based, Cryptosporidium parvum. The note with it: for EC50: Cryptosporidium parvum, HCT-8, 48 h, growth in HCT-8 cells, 48 hours. The procedure: The human ileocecal adenocarcinoma epithelial cell line, HCT-8, was used to support C. parvum infection in vitro. HCT-8 cells were maintained in RPMI-1640 (Hyclone) supplemented with 10% FBS, 1 mM sodium pyruvate, 50 U/m penicillin, 50 µg/ml streptomycin, and amphotericin B. Cryptosporidium parvum oocysts were a kind gift from either Dr. Mead (Emory University) or Dr. Kissinger (University of Georgia). HCT-8 cells (2×10^5) were seeded into black, optical quality, thin bottom, 96-well plates (DB Falcon) to achieve a 70% confluent monolayer on the day of infection. To facilitate oocyst excystation, a procedure described by Gut et al., was followed. Briefly, oocysts were washed twice with 1 ml of PBS (pH 7.2), incubated for 10 minutes at 37°C in 1 ml 10 mM of HCl and then incubated for a further 10 minutes in 0.2 ml of 200 µM sodium taurocholate at 15°C [40]. This oocyst suspension was diluted directly with DMEM (Hyclone) supplemented with 2% FBS, 50 U/ml penicillin, 50 µg/ml streptomycin, amphotericin B and 0.2 mM L-glutamine (infection medium) to inoculate host cell monolayers at 5×10^5 oocysts per well. Host cell monolayers were incubated for 3 hours at 37°C prior to removal of unexcysted oocysts by aspiration and PBS wash. Infection medium was then added to the monolayers and infection was allowed to progress for 48 hours.
The VVL IFA was performed in a 96-well format. Following 48 hours of culture C. parvum infected HCT-8 cells were washed with PBS and fixed with 0.2 ml/well of 3% paraformaldehyde/PBS, permeabilized with 0.25% Triton-X-100/PBS and blocked with 4% BSA/PBS. 0.1 ml of fluorescein (FITC)-conjugated VVL (Vector Labs 0.5 µg/ml) in 1% BSA/PBS was applied to wells and incubated for 45 minutes. The plates were washed twice with 200 µl/well of PBS. In the first wash DAPI was included at 0.1 µg/ml. Finally 200 µl/well of PBS was added to the plates prior to storage at 4°C protected from light.
Confocal images were acquired using a BD Biosciences Bioimager P435. The instrument was programmed to automatically change position and focus, capture montage images of 9–16, 40× fields per well, and then compress and save the image files. Object finding algorithms were developed for the recognition of FITC-VVL labelled C. parvum parasites and DAPI labelled host cell nuclei using Attovision Software (BD Biosciences). Briefly, to identify FITC-VVL labelled parasites, the object finding algorithm included, a flat field correction, a polygon shape setting, a 3×3 rolling ball filter, manual pixel intensity thresholding (100 min – 4095 max), and minimum and maximum object size cut-offs of 5 pixels and 350 pixels respectively. The algorithm optimised for finding DAPI labelled host cell nuclei also included flat field correction and polygon shape setting, but applied a 25×25 rolling ball filter which is more suitable for larger objects, an automated pixel intensity threshold, minimum and maximum object size cut-offs of 200 pixels and 4000 pixels respectively, and a watershed step with an erosion factor of 8 to aid in the separation of adjacent densely packed nuclei. Note that the intensity and area size cut off exclude detection of the much smaller parasite nuclei (the human genome is three hundred times larger than the C. parvum genome).
The object finding analysis steps described above recorded the number and area of objects per montage image. The output files along with a plate map file were then passed to an automated analysis pipeline (Pipeline Pilot Software, Accelrys) to calculate the mean number of parasites, the ratio of parasite number to host cell nuclei number, the mean area of parasites and host cell nuclei by well, and the percentage growth by treatment as compared to the no drug control. These analyses were exported in graphical format for each plate and the numerical values tabulated in html format. […]

The subject of data set [5] is T. gondii-CpIMPDH. The experiment in a line: Fluorescent T. gondii growth assay, CpIMPDH reporter strain. The data set is classed as cell-based, Toxoplasma gondii. Particulars: for Selectivity = EC50(T. gondii-wild-type)/EC50(T. gondii-CpIMPDH): Figure 5 Sel; for EC50: Toxoplasma gondii, read-out: T. gondii model EC50 CpIMPDH, T. gondii-CpIMPDH, absence of xanthine.
Excerpt: as §1
To facilitate screening of antiparasitic activity, we constructed a T. gondii reporter parasite that mirrors the Cryptosporidium purine metabolism. Figure 1 summarizes the main differences between the two parasites in this pathway. We started with a T. gondii knockout mutant that, like C. parvum, lacks the ability to salvage xanthine and guanine via HXGPRT (T. gondii-ΔHXGPRT [41]) and introduced the CpIMPDH gene under the control of a T. gondii promoter. Next the native T. gondii IMPDH gene was disrupted by replacing the entire coding sequence with a chloramphenicol acetyl transferase cassette using a new cosmid-based gene targeting approach. […] This manipulation created strain T. gondii-CpIMPDH-ΔHXGPRT-ΔTgIMPDH. Lastly, we introduced a fluorescent protein cassette and isolated stable transgenic parasites by cell sorting. The resulting strain is referred to as T. gondii-CpIMPDH. […] We similarly engineered fluorescent versions of wild-type T. gondii and T. gondii-ΔHXGPRT to serve as controls.
as §2

Data set [6] has as its system wild-type T. gondii. In words: Fluorescent T. gondii growth assay, wild-type strain. The data set is classed as cell-based, Toxoplasma gondii. The note with it: wild-type T. gondii, no added xanthine, read-out: T. gondii model EC50 WT.
Excerpt: as §1, §2

Data set [7] concerns the target T1, CpIMPDH. Particulars: cited from earlier work.
The subject of data set [8] is C. parvum. Particulars: several previous studies; read-out: reported EC50 values for C. parvum growth; cited from earlier work.
Where [9] appears, read: read-out: CpIMPDH Inhibition IC50 + BSA.

Like-named read-outs stand apart in the source and are kept apart here. Bounds are passed on as bounds.

T1 sequence (Q8T6T2 whole entry): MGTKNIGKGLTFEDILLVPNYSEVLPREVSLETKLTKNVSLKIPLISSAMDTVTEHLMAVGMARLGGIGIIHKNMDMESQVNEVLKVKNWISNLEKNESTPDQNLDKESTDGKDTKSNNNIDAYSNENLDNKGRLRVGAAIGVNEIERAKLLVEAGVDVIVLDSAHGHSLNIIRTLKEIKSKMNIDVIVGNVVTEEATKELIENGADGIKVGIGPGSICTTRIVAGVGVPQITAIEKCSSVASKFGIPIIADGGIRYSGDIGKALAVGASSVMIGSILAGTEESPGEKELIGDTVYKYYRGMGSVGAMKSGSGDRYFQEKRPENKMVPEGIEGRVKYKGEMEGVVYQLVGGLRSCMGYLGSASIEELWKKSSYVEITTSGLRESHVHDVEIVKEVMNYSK

Take `CC(Oc1cccc2ncccc12)c1cn(-c2ccc(Cl)cc2)nn1` (centres unmarked) [Compound A99]: the 50% effective concentration (EC50) in data set [1] is 3.4 µM; in data set [4], 12 to 25 µM; in data set [5] it was < 200 nM; in data set [6] (Toxoplasma gondii) it was 4.7 µM. In data set [2], this molecule showed an activity at 25 µM of 58 ± 8%. Further, the concentration for half-maximal inhibition (IC50) in data set [3] (in the presence of BSA) stood at 76 ± 9 nM; in data set [3] (without BSA), 31 ± 1 nM. Besides, the “selectivity for the T. gondii-CpIMPDH parasite over wild-type T. gondii” value (“selectivity … over wild-type T. gondii” below) in data set [5] is ≥ 17 fold. Moreover, the “Selectivity = EC50(T. gondii-wild-type)/EC50(T. gondii-CpIMPDH)” value in data set [5] is > 17.

Regarding `CC(Oc1cc[n+]([O-])c2ccccc12)c1cn(-c2ccc(Cl)cc2)nn1` (centres unmarked) [Compound A100], the EC50 in data set [1] was ≥ 25 µM; in data set [4], 12 to 25 µM; in data set [5], 500 nM; in data set [6] (Toxoplasma gondii), > 25 µM; in data set [6], ≥ 20 µM. Also, the IC50 in data set [7] (read-out: CpIMPDH Inhibition IC50 - BSA) is 30 ± 10 nM. The same molecule yielded an activity at 25 µM in data set [2] of 44 ± 10%. Further, in data set [2], the “inhibition of HCT-8 cell growth” value was “inhibit HCT-8 cell growth significantly”. The “selectivity … over wild-type T. gondii” value in data set [5] is ≥ 36 fold.

On to `CC(Oc1cccc2c1ccc[n+]2[O-])c1cn(-c2ccc(Cl)cc2)nn1` (centres unmarked) [Compound A102], for which the EC50 was 20 ± 5 µM in data set [1]; 12 to 25 µM in data set [4]; 300 ± 100 nM in data set [5]; 23 ± 3 µM in data set [6] (Toxoplasma gondii); ≥ 20 µM in data set [6]. Moreover, the half-maximal inhibitory concentration (IC50) in data set [7] (setting [9]) was 60 ± 20 nM. In data set [2], this molecule registered an activity at 25 µM of 62%. The “inhibition of HCT-8 cell growth” value in data set [2] is given as “inhibit HCT-8 cell growth significantly”. Besides, the “selectivity … over wild-type T. gondii” value in data set [5] was ≥ 36 fold. Besides, in data set [5], the “Selectivity = EC50(T. gondii-wild-type)/EC50(T. gondii-CpIMPDH)” value worked out at 76.

As for `C[C@@H](Oc1cccc2c1ccc[n+]2[O-])c1cn(-c2ccc(Cl)cc2)nn1` [Compound A109], the concentration giving a half-maximal response (EC50) in data set [1] was > 25 µM; in data set [4], 12 to 25 µM; in data set [5], 300 ± 100 nM; in data set [6] (Toxoplasma gondii), > 25 µM. For the same molecule, the concentration for half-maximal inhibition (IC50) in data set [7] (setting [9]) is 50 ± 10 nM. Further, in data set [2], the activity at 25 µM is 89 ± 16%. In data set [5], the “selectivity … over wild-type T. gondii” value is ≥ 36 fold. Moreover, the “Selectivity = EC50(T. gondii-wild-type)/EC50(T. gondii-CpIMPDH)” value in data set [5] was > 86.

On to `NC[C@@H]1O[C@H](O[C@H]2[C@@H](O)[C@H](O[C@@H]3[C@@H](O)[C@H](N)C[C@H](N)[C@H]3O[C@H]3O[C@H](CO)[C@@H](O)[C@H](O)[C@H]3N)O[C@@H]2CO)[C@H](N)[C@@H](O)[C@@H]1O` [paromomycin, reference compound], for which the results for the concentration giving a half-maximal response (EC50) in data set [8] and in data set [4] were 65 to 130 µM and 97 µM, respectively. The “effect on host cell (HCT-8) growth” value in data set [2] (in words) is reported as “negligible effects on the growth of these cells”. The mean parasite area result in data set [4] (relative to DMSO alone) was “significantly reduce the mean parasite area in a dose responsive manner”. For the same molecule, the “parasites observed relative to the no drug control” value in data set [4] (very high concentrations of paromomycin) is recorded as ~30%.

Usually EC50 stands for the midpoint of the concentration-response curve. For orientation: IC50 means the concentration needed to halve the response being measured.

Source of the values: paper PMC2919388, “A Screening Pipeline for Antiparasitic Agents Targeting Cryptosporidium Inosine Monophosphate Dehydrogenase” (PLoS Neglected Tropical Diseases, 2010).
